From patent US20050054629A1, “Compounds and methods of treating cell proliferative diseases” (priority 2002, published 2005)

What was measured:
NIH3T3 cells = test: Colony formation assay with constitutively activated Ras (RasV12) and Rac (RacV12); assay type: cell-based, mouse; parameters: key to Colony formation: −: no effect of the compound was observed; +: an effect of the compound was observed
Procedure: (§1) The impact of the compounds on Ras and Rac signaling pathways was analysed with two reporter systems described by Imler (Nature 1988) and Lin (Science, 1995) respectively on one hand, and by a colony formation assay in the presence of constitutively activated Ras (RasV12) and Rac (RacV12) on the other hand. For this latter experiment, fifty percent confluent NIH3T3 cells in a 10 cm diameter petri dish were transfected with 0.5 μg pSV2-RasV12 or 0.5 μg pEXV RacV12 plasmids plus 100 ng of pSV2-neomycin plasmid using Lipofectamine-Plus reagent (Invitrogen) according to the manufacturer's instructions. Forty-eight hours later, cells were trypsinised, splitted to ⅓, and incubated in the presence of complete medium supplemented with 400 μg/ml geneticin (Invitrogen) and different doses of compound (1, 10, 17.5, 25 and 50 μM) until emerging resistant clones appear (2-3 weeks). The medium was renewed every 3 days. Colonies with a minimum of 50 cells were counted after staining with Fuschin 2%.

Ras = test: Ras-dependant signaling pathway analysis (reporter system); assay type: cell-based; parameters: key: −: no effect of the compound was observed; +: an effect of the compound was observed
Procedure: as §1

[1] = test system: HCT116 colon adenocarcinoma; test: Cytotoxicity assay (MTT), 6 days; assay type: cell-based, human; settings: Homo sapiens, HCT-116, 144 h, 6 days of treatment, read-out: Toxicity 6d (IC 50, μM) HCT116
In short: (§2)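 Compound was added 24 h after seeding at six concentrations from 0 to 50 μM. Six days later, viability was assessed by MTT reduction and absorbance at 550 nm, giving IC50 values from triplicate assays.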

Rac = test: Rac-dependant signaling pathway analysis (reporter system); assay type: cell-based; parameters: key: −: no effect of the compound was observed; +: an effect of the compound was observed
Procedure: as §1

NIH3T3 = test: Cytoskeleton analysis, actin staining (FITC-phalloidin); assay type: cell-based, mouse; settings: for Cell architecture modification actin staining (R: ruffles; FC: focal complexes) NIH3T3: 24 h treatment
Procedure: Since major rearrangements of cytoskeleton are observed in tumor cells and since the small GTPases are known to regulate these events, analysis of actin cytoskeleton was performed. Subconfluent cells seeded onto coverslips were treated with different concentration of compound (1, 10, 17.5, 25 and 50 μM) or vehicle for 24 h, before being fixed in 4% formaldehyde for 15 min., permeabilized in 0.2% Triton X100 for 5 minutes and incubated in PowerBlock (Biogenex) for 10 min. Actin filaments were stained with 0.5 μg/ml fluorescein isothiocyanate (FITC)-labelled phalloidin for 1 hour. Analysis was performed using an inverted fluorescent microscope.

cell architecture = test: Cell architecture modification, phase contrast; assay type: cell-based; parameters: key: −: no effect of the compound was observed; +: an effect of the compound was observed
H460 lung carcinoma = test: Cytotoxicity assay (MTT), 6 days; assay type: cell-based; settings: Homo sapiens, NCI-H460, 144 h, 6 days of treatment, read-out: Toxicity 6d (IC 50, μM) H460
In short: as §2

[2] = test system: MDA-MB-231 breast carcinoma; test: Cytotoxicity assay (MTT), 6 days; assay type: cell-based; settings: Homo sapiens, MDA-MB-231, 144 h, 6 days of treatment, read-out: Toxicity 6d (IC 50, μM) MDA231
In short: as §2

MCF-7 breast carcinoma = test: Cytotoxicity assay (MTT), 6 days; assay type: cell-based; settings: Homo sapiens, MCF7, 144 h, 6 days of treatment, read-out: Toxicity 6d (IC 50, μM) MCF7
In short: as §2

MDA-MB-231 cells [3] = test: Migration assay (Boyden chamber, non-coated filters); assay type: cell-based, human; settings: MDA-MB-231, Boyden chamber
Procedure: One day after seeding, 10^6 MDA-MB-231 cells were treated overnight with different concentrations of compounds (1, 10, 17.5, 25 and 50 μM). Cells were collected with Versene (Invitrogen), counted with trypan blue exclusion, rinsed twice in serum-free medium containing 0.1% BSA and resuspended in serum-free medium containing 0.1% BSA plus the appropriate concentration of compound. 10^5 treated cells were placed in the upper chamber. Medium containing 10% of FBS plus the appropriate concentration of compound was placed in the lower chamber as a chemoattractant. The Boyden chamber was incubated 6 hours at 37° C. before the cells were fixed and stained with Diff-Quick (Dade-Berhing). Cells on the upper part of the filters were removed using a cotton swab. Cells on the underside of the filters were visualised and counted under light microscope.
The migration assay was performed the same way, using non-coated filters.

MRC-5 = test: Cytotoxicity assay (MTT), 6 days; assay type: cell-based; settings: Homo sapiens, MRC5, 144 h, 6 days of treatment, read-out: Toxicity 6d (IC 50, μM) MRC-5
In short: as §2

HCT116 = test: Cell viability assay (MTT), Example 32; assay type: cell-based, human; settings: Homo sapiens, HCT-116, 144 h; day 6, 10% FBS
Procedure: FIG. 7: Antiproliferative effect of compounds on HCT116 (top) and MDA-MB-231 (bottom) cell lines measured by MTT viability assay. 2.5 10^3 (HCT116) or 7.5 10^3 (MDA-MB-231) cells were seeded in 48-well plates in growth medium containing 10% FBS, with or without various concentrations of test compounds. Cell cultures were fed every 3 days with the appropriate media. Cell viability was determined on day 6. Data were analyzed and IC50s were calculated from the dose-response curves using GraphPad Prism.
In order to determine one compound effect on cell viability, microculture tetrazolium assay (MTT) was performed as described by Carmichael et al., (1996) with modifications. Four human tumoral cell lines, namely HCT116 colon adenocarcinoma, H460 lung carcinoma, MCF-7 and MDA-MB-231 breast carcinoma cell lines, and 3 immortalized but non tumorigenic cell lines, namely NIH3T3 mouse fibroblasts and human breast-derived MCF10-A and human lung-derived MRC-5 were purchased at ATCC and cultured according to their recommendations. Briefly, 2.5 10^3 to 2 10^4 cells per well were seeded in 48-well plates 24 hours before drug addition. Cells were treated with 0 to 200 μM (11 concentrations) of compound solubilized in DMSO, adjusting the final concentration of DMSO to 1% in the well. Six days after treatment, the medium was replaced by PBS containing 0.5 mg/ml MTT (Sigma) and cells were incubated for 1-3 hours at 37° C. before solubilization of formazan crystals in 100% DMSO. Absorbance was measured using a spectrophotometer at a wavelength of 550 nm. Data was analyzed using the GraphPad Prism software (GraphPad Software, Inc., San Diego, USA), and IC50 (dose leading to 50% cell death) was calculated from the dose-response curves.

MDA-MB-231 cells [4] = test: Migration assay (Fluoroblock inserts), Example 32; assay type: cell-based, human; settings: 16 hours
Procedure: FIG. 10: Migration of MDA-MB-231 cells in the presence of various concentrations of L651582, and EHT 0823. 5 10^4 MDA-MB-231 cells, resuspended in culture medium with or without Fetal Bovine Serum (FBS), were seeded in the upper Boyden blind well on top of 8 μm pore-sized filters. The ability of cells to migrate through the filter was assayed in the absence or presence of FBS in the lower Boyden well. After incubation at 37° C. for 16 hours, the medium was removed and replaced with calcein containing medium. After labelling, cells were washed and resuspended in HBSS and fluorescence was read in a fluoroskan. Fluorescence values were normalized against the fluorescence obtained for the 1% DMSO control. The data plotted are the means±SEM for 2 wells under the different conditions.
An essential characteristic of malignant cells is their ability to migrate, invade host tissues and to produce metastases. In order to evaluate the capacity of one compound to affect the ability of tumoral cells to migrate, migration assays were performed using highly invasive tumoral cells MDA-MB-231. This assay was performed using Falcon HTS Fluoroblock inserts. Culture medium containing Fetal Bovine Serum (FBS; which is used as a chemoattractant) was added to the plate wells and 2 10^4 MDA-MB-231 cells resuspended in medium without FBS and with 0.1% BSA were added to each insert well. The compound of interest was added to the medium in both the upper and the lower chambers. Plate were incubated for 16 hours at 37° C. Following incubation, the medium was removed from the upper chamber and the entire insert plate was transferred to a second 24-well plate containing 4 μg/ml Calcein-AM in medium containing 0.1% BSA. The plates were incubated for one hour at 37° C., rinsed with Hanks Buffered Saline (HBSS). Fluorescence data were collected using Fluoroskan Ascent FL fluorescence plate reader at an excitation wavelength (Ex) of 485 nm and emission wavelength (Em) of 517 nm. Only those labelled cells that passed through the Matrigel layer and the membrane were detected. Data were analyzed using the GraphPad Prism software.

HCT116 cells = test: Anchorage-independent cell growth assay in soft agar, Example 32; assay type: cell-based, human
Procedure: FIG. 8: Effect of the treatment of HCT116 cells with the compounds on the size of the clones grown in soft agar. 5 10^3 cells were seeded in 24-well plates in 0.3% agar-containing medium supplemented with the designated amount of compounds. After 7 days of incubation at 37° C., pictures were taken of each well and were analyzed using the ImageJ image analysis software. In particular, clone size and number were calculated. The data were analyzed using GraphPad Prism, and IC50 was calculated.
In order to evaluate the effect of one compound on the capacity of tumour cells to grow without anchorage, HCT116 cells were seeded in soft agar. In contrast to microplate assays which average the drug's effects over an entire cell population, clonogenic assays offer the possibility of distinguishing cytotoxic agents (i.e., decreased colony number) from cytostatic agents (i.e., decreased colony size without decreased colony number; Murphy M. J. et al., 1996).
Briefly, 5 10^3 HCT116 cells were resuspended in 300 pi of complete medium containing 0.3% soft-agar (Difco) and different concentrations of compound (8 concentrations ranging from 0 to 30 μM). Cells were then poured on a solidified layer of medium containing 0.5% of soft agar plus the compound at the same concentration as in the upper layer. Cells were incubated for 7 days' at 37° C. before pictures of each well were taken using a phase contrast microscope (Nikon) and a digital camera (Nikon Coolpix 990). Pictures were subsequently analyzed using a free image analysis software from the NIH (ImageJ) allowing to determine clones size and number.
Data was analyzed using the GraphPad Prism software, and IC50 (dose leading to a 50% decrease of clone size or number) was calculated from dose-response curves. The ratio IC50 clone size/IC50 clone number was then calculated. When this ratio is equal to 1 (IC50 size=IC50 number), the compound is referred to as “cytotoxic”. When the ratio is close to 0 (IC50 size<<IC50 number), the compound is referred to as “cytostatic” (FIG. 6).

| Structure (SMILES) | Colony formation (NIH3T3 cells) | Small GTPases activities Ras (Ras) | IC50 [1] | Small GTPases activities Rac (Rac) | general morphology of NIH3T3 cells, as detected by β-actin staining (NIH3T3) | Cell architecture modification actin staining (R: ruffles; FC: focal complexes) NIH3T3 (NIH3T3) | Cell architecture modification phase contrast (cell architecture) | IC50 (H460 lung carcinoma) | IC50 [2] | IC50 (MCF-7 breast carcinoma) | Migration (MDA-MB-231 cells [3]) | IC50 (MRC-5) | IC50 (HCT116) | inhibition of migration of MDA-MB-231 cells (MDA-MB-231 cells [4]; 10 μM compound) | inhibition at 50 µM (MDA-MB-231 cells [4]; Homo sapiens, MDA-MB-231, 50 μM compound) | IC50 anchorage-independent growth of HCT116 (clone size) in soft agar (HCT116 cells; 7 days) | inhibition of migration of MDA-MB-231 cells (MDA-MB-231 cells [4]; 50 μM compound) | inhibition at 10 µM (MDA-MB-231 cells [4]; Homo sapiens, MDA-MB-231, 10 μM compound) | mode of action (cytotoxic vs cytostatic) (HCT116 cells; HCT116 soft agar) | ratio IC50 clone size/IC50 clone number (HCT116 cells; HCT116 soft agar, 7 days) |
| --- | --- | --- | --- | --- | --- | --- | --- | --- | --- | --- | --- | --- | --- | --- | --- | --- | --- | --- | --- | --- |
| O=c1cc(CO)occ1OCCCCCOc1ccc(Cl)c(Cl)c1 [EH5500, 5-[5-(3,4-Dichlorophenyloxy)pentyloxy]-2-(hydroxymethyl)-4H-pyran-4-one] | − | − | 50 µM | − | affected | cell destructuration | + | 15 µM | > 50 µM | 35 µM |  |  |  |  |  |  |  |  |  |  |
| O=c1cc(CO)occ1OCCCCCOc1cccc(Cl)c1 [EH10600, 5-[5-(3-Chlorophenyloxy)pentyloxy]-2-(hydroxymethyl)-4H-pyran-4-one] | − | − | > 50 µM | − | affected | cell destructuration | + | 25 µM | 10 µM | 40 µM |  |  |  |  |  |  |  |  |  |  |
| O=c1cc(CO)occ1OCCCCOc1ccc(Cl)c(Cl)c1 [EH17700, 5-[4-(3,4-Dichlorophenyloxy)butyloxy]-2-(hydroxymethyl)-4H-pyran-4-one] | − | − | 30 µM | − |  |  | − | 15 µM | 15 to 20 µM | 20 µM | no effect | > 50 µM |  |  |  |  |  |  |  |  |
| O=c1cc(COC2CCCCO2)occ1OCCCCCn1ccc2cc(Cl)ccc21 (centres unmarked) [EHT 0823, 5-[5-(5-Chloro-indol-1-yl)-pentyloxy]-2-(tetrahydro-pyran-2-yloxymethyl)-4H-pyran-4-one] |  |  |  |  |  |  |  |  |  |  |  |  | 1.5 to 4 µM | No significant inhibition | 90% | micromolar range |  |  |  |  |
| NC(=O)c1nnn(Cc2cc(Cl)c(C(=O)c3ccc(Cl)cc3)c(Cl)c2)c1N [L651582, carboxyamidotriazole, reference compound] |  |  |  |  |  |  |  |  |  |  |  |  |  |  |  |  | Complete inhibition | ~40% | cytostatic | 0.3 |
